Assay results: PubChem BioAssay AID256 (DTP/NCI, 2004)
Values joined by “and” are separate entries in the source; they are usually repeats but may differ in a detail not shown here. Equal entries are not always repeated. Toxic doses and inconclusive results are not listed.

System: CD2F1 mice, L1210 leukemia ip, survival T/C
Assay: NCI In Vivo Anticancer Drug Screen. Data for tumor model L1210 Leukemia (intraperitoneal) in CD2F1 (CDF1) mice
Conditions: higher = longer survival
How it was run: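 Compound-dosed mice with transplantable tumor versus matched vehicle controls; endpoint ratio T/C reported.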

[1] = endpoint: mean survival time, dose: 100.0 mg/kg/injection, schedule: Q04DX003 (ip), vehicle: saline
[2] = endpoint: mean survival time, dose: 200.0 mg/kg/injection, schedule: Q04DX003 (ip), vehicle: saline
[3] = endpoint: mean survival time, dose: 400.0 mg/kg/injection, schedule: Q04DX003 (ip), vehicle: saline
[4] = endpoint: mean survival time, dose: 100.0 mg/kg/injection, schedule: Q01DX009 (ip), vehicle: saline with Tween-80
[5] = endpoint: mean survival time, dose: 200.0 mg/kg/injection, schedule: Q01DX009 (ip), vehicle: saline with Tween-80
[6] = endpoint: mean survival time, dose: 400.0 mg/kg/injection, schedule: Q01DX009 (ip), vehicle: saline with Tween-80
[7] = endpoint: mean survival time, dose: 12.5 mg/kg/injection, schedule: Q01DX009 (ip), vehicle: water
[8] = endpoint: mean survival time, dose: 25.0 mg/kg/injection, schedule: Q01DX009 (ip), vehicle: water
[9] = endpoint: mean survival time, dose: 100.0 mg/kg/injection, schedule: Q04DX002 (ip), vehicle: saline
[10] = endpoint: mean survival time, dose: 100.0 mg/kg/injection, schedule: Q04DX003 (ip), vehicle: saline with Tween-80
[11] = endpoint: mean survival time, dose: 200.0 mg/kg/injection, schedule: Q04DX003 (ip), vehicle: saline with Tween-80
[12] = endpoint: mean survival time, dose: 400.0 mg/kg/injection, schedule: Q04DX003 (ip), vehicle: saline with Tween-80
[13] = endpoint: mean survival time, dose: 50.0 mg/kg/injection, schedule: Q01DX009 (ip), vehicle: water
[14] = endpoint: mean survival time, dose: 100.0 mg/kg/injection, schedule: Q01DX009 (ip), vehicle: water
[15] = endpoint: mean survival time, dose: 100.0 mg/kg/injection, schedule: Q04DX002 (ip), vehicle: saline with Tween-80

OCCO
T/C (endpoint: mean survival time, dose: 100.0 mg/kg/injection, schedule: Q01DX009 (ip), vehicle: saline sonified): 94 % of control and 101 % of control
T/C [1]: 103 % of control and 106 % of control
T/C (endpoint: mean survival time, dose: 200.0 mg/kg/injection, schedule: Q01DX009 (ip), vehicle: saline sonified): 94 % of control and 101 % of control
T/C [2]: 104 % of control and 98 % of control
T/C (endpoint: mean survival time, dose: 400.0 mg/kg/injection, schedule: Q01DX009 (ip), vehicle: saline sonified): 93 % of control and 104 % of control
T/C [3]: 104 % of control and 101 % of control
T/C (endpoint: median survival time, dose: 0.25 % in 0.5 ml injection vol, schedule: Q01DX009 (ip), vehicle: water): 95 % of control
T/C (endpoint: median survival time, dose: 0.5 % in 0.5 ml injection vol, schedule: Q01DX009 (ip), vehicle: water): 94 % of control
T/C (endpoint: median survival time, dose: 1.0 % in 0.5 ml injection vol, schedule: Q01DX009 (ip), vehicle: water): 94 % of control
T/C (endpoint: median survival time, dose: 2.0 % in 0.5 ml injection vol, schedule: Q01DX009 (ip), vehicle: water): 105 % of control

CCOC(=O)C(C=O)(CC)C(=O)OCC
T/C [4]: 97 % of control
T/C [5]: 94 % of control
T/C [6]: 103 % of control

C[n+]1c(-c2cc(Cl)cc(Cl)c2)c2cc(N)ccc2c2ccccc21
T/C (endpoint: mean survival time, dose: 6.25 mg/kg/injection, schedule: Q01DX009 (ip), vehicle: water): 108 % of control
T/C [7]: 108 % of control
T/C [8]: 104 % of control

CCCCN=C(N)CCl
T/C (endpoint: mean survival time, dose: 25.0 mg/kg/injection, schedule: Q04DX002 (ip), vehicle: saline): 100 % of control
T/C (endpoint: mean survival time, dose: 50.0 mg/kg/injection, schedule: Q04DX002 (ip), vehicle: saline): 100 % of control
T/C [9]: 100 % of control and 111 % of control

CCCC(=O)Nc1cc2c3c(c1)CCCN3CCC2
T/C (endpoint: mean survival time, dose: 6.25 mg/kg/injection, schedule: Q01DX009 (ip), vehicle: saline with Tween-80): 97 % of control
T/C (endpoint: mean survival time, dose: 12.5 mg/kg/injection, schedule: Q01DX009 (ip), vehicle: saline with Tween-80): 97 % of control
T/C (endpoint: mean survival time, dose: 25.0 mg/kg/injection, schedule: Q01DX009 (ip), vehicle: saline with Tween-80): 98 % of control

Cc1ccc(S(=O)(=O)N/N=C\c2cccnc2)cc1
T/C (endpoint: mean survival time, dose: 12.5 mg/kg/injection, schedule: Q04DX003 (ip), vehicle: other): 101 % of control
T/C (endpoint: mean survival time, dose: 25.0 mg/kg/injection, schedule: Q04DX003 (ip), vehicle: other): 101 % of control
T/C (endpoint: mean survival time, dose: 50.0 mg/kg/injection, schedule: Q04DX003 (ip), vehicle: other): 97 % of control
T/C (endpoint: mean survival time, dose: 100.0 mg/kg/injection, schedule: Q04DX003 (ip), vehicle: other): 101 % of control
T/C (endpoint: mean survival time, dose: 200.0 mg/kg/injection, schedule: Q04DX003 (ip), vehicle: other): 97 % of control
T/C (endpoint: mean survival time, dose: 400.0 mg/kg/injection, schedule: Q04DX003 (ip), vehicle: other): 98 % of control

Nc1nc(SCc2ccc([N+](=O)[O-])cc2)c2[nH]cnc2n1
T/C [4]: 94 % of control
T/C [10]: 97 % of control
T/C [5]: 101 % of control
T/C [11]: 97 % of control
T/C [6]: 95 % of control
T/C [12]: 96 % of control

CO[C@@]12[C@@H]3N[C@@H]3CN1C1=C(C(=O)C(N(C)c3ccc(O)cc3)=C(C)C1=O)[C@@H]2COC(N)=O
T/C (endpoint: median survival time, dose: 3.0 mg/kg/injection, schedule: Q01DX001 (ip), vehicle: distilled water + Tween-80): 100 % of control
T/C (endpoint: median survival time, dose: 6.0 mg/kg/injection, schedule: Q01DX001 (ip), vehicle: distilled water + Tween-80): 121 % of control
T/C (endpoint: median survival time, dose: 12.0 mg/kg/injection, schedule: Q01DX001 (ip), vehicle: distilled water + Tween-80): 117 % of control and 102 % of control
T/C (endpoint: median survival time, dose: 24.0 mg/kg/injection, schedule: Q01DX001 (ip), vehicle: distilled water + Tween-80): 113 % of control

NCCc1ccncc1
T/C [9]: 92 % of control
T/C (endpoint: mean survival time, dose: 200.0 mg/kg/injection, schedule: Q04DX002 (ip), vehicle: saline): 92 % of control
T/C (endpoint: mean survival time, dose: 400.0 mg/kg/injection, schedule: Q04DX002 (ip), vehicle: saline): 111 % of control

O=[N+]([O-])c1ccc(Sc2ncnc3nc[nH]c23)c([N+](=O)[O-])c1
T/C (endpoint: mean survival time, dose: 16.6 mg/kg/injection, schedule: Q01DX005 (ip), vehicle: other): 154 % of control
T/C (endpoint: mean survival time, dose: 25.0 mg/kg/injection, schedule: Q01DX005 (ip), vehicle: other): 167 % of control
T/C (endpoint: mean survival time, dose: 37.5 mg/kg/injection, schedule: Q01DX005 (ip), vehicle: other): 162 % of control
T/C (endpoint: mean survival time, dose: 56.3 mg/kg/injection, schedule: Q01DX005 (ip), vehicle: other): 167 % of control

CCOC(=O)C(NCc1ccccc1)C(=O)OCC
T/C [7]: 96 % of control
T/C [8]: 98 % of control
T/C [13]: 101 % of control
T/C [14]: 93 % of control

Cc1cc2c(cc1C)C(=O)c1ccccc1C2=O
T/C (endpoint: mean survival time, dose: 50.0 mg/kg/injection, schedule: Q01DX009 (ip), vehicle: saline): 102 % of control
T/C (endpoint: mean survival time, dose: 100.0 mg/kg/injection, schedule: Q01DX009 (ip), vehicle: saline): 93 % of control
T/C [1]: 97 % of control
T/C [2]: 89 % of control

Cc1ccc(S(=O)(=O)Nc2ccc([N+](=O)[O-])cc2O)cc1
T/C (endpoint: mean survival time, dose: 100.0 mg/kg/injection, schedule: Q04DX003 (ip), vehicle: Klucel (hydroxypropylcellulose) (HPC)): 94 % of control
T/C (endpoint: mean survival time, dose: 200.0 mg/kg/injection, schedule: Q04DX003 (ip), vehicle: Klucel (hydroxypropylcellulose) (HPC)): 94 % of control
T/C (endpoint: mean survival time, dose: 400.0 mg/kg/injection, schedule: Q04DX003 (ip), vehicle: Klucel (hydroxypropylcellulose) (HPC)): 94 % of control

CCCCCCCCCCNC(=O)C[n+]1cccc(C(=O)N(C)C)c1
T/C (endpoint: mean survival time, dose: 12.5 mg/kg/injection, schedule: Q01DX009 (ip), vehicle: saline sonified): 100 % of control
T/C (endpoint: mean survival time, dose: 12.5 mg/kg/injection, schedule: Q04DX003 (ip), vehicle: saline): 95 % of control
T/C (endpoint: mean survival time, dose: 25.0 mg/kg/injection, schedule: Q01DX009 (ip), vehicle: saline sonified): 97 % of control
T/C (endpoint: mean survival time, dose: 25.0 mg/kg/injection, schedule: Q04DX003 (ip), vehicle: saline): 97 % of control
T/C (endpoint: mean survival time, dose: 50.0 mg/kg/injection, schedule: Q01DX009 (ip), vehicle: saline sonified): 102 % of control
T/C (endpoint: mean survival time, dose: 50.0 mg/kg/injection, schedule: Q04DX003 (ip), vehicle: saline): 101 % of control

NC(=S)N/N=C/c1ccc(OC(F)(F)F)cn1
T/C (endpoint: mean survival time, dose: 1.56 mg/kg/injection, schedule: Q01DX009 (ip), vehicle: other): 104 % of control
T/C (endpoint: mean survival time, dose: 3.13 mg/kg/injection, schedule: Q01DX009 (ip), vehicle: other): 100 % of control
T/C (endpoint: mean survival time, dose: 6.25 mg/kg/injection, schedule: Q01DX009 (ip), vehicle: other): 108 % of control
T/C (endpoint: mean survival time, dose: 12.5 mg/kg/injection, schedule: Q01DX009 (ip), vehicle: other): 118 % of control
T/C (endpoint: mean survival time, dose: 25.0 mg/kg/injection, schedule: Q04DX002 (ip), vehicle: other): 89 % of control
T/C (endpoint: mean survival time, dose: 50.0 mg/kg/injection, schedule: Q04DX002 (ip), vehicle: other): 104 % of control
T/C (endpoint: mean survival time, dose: 100.0 mg/kg/injection, schedule: Q04DX002 (ip), vehicle: other): 115 % of control

CCOC(=O)Cc1cccc(CC(O)(c2ccccc2)c2ccccc2)n1
T/C [4]: 100 % of control
T/C [1]: 92 % of control
T/C [5]: 98 % of control
T/C [2]: 90 % of control
T/C [6]: 100 % of control
T/C [3]: 87 % of control

COc1ccc(NC(=O)Nc2ccc(F)cc2)cc1
T/C [10]: 101 % of control
T/C [11]: 96 % of control
T/C [12]: 102 % of control

O=c1ccc2ccccc2o1
T/C (endpoint: mean survival time, dose: 50.0 mg/kg/injection, schedule: Q01DX009 (ip), vehicle: Klucel (hydroxypropylcellulose) (HPC)): 100 % of control
T/C (endpoint: mean survival time, dose: 100.0 mg/kg/injection, schedule: Q01DX009 (ip), vehicle: Klucel (hydroxypropylcellulose) (HPC)): 96 % of control
T/C (endpoint: mean survival time, dose: 200.0 mg/kg/injection, schedule: Q01DX009 (ip), vehicle: Klucel (hydroxypropylcellulose) (HPC)): 96 % of control

CN(C)C(=O)C(O)C1CCCCC1 (centres undefined)
T/C [15]: 94 % of control
T/C (endpoint: mean survival time, dose: 200.0 mg/kg/injection, schedule: Q04DX002 (ip), vehicle: saline with Tween-80): 94 % of control
T/C (endpoint: mean survival time, dose: 400.0 mg/kg/injection, schedule: Q04DX002 (ip), vehicle: saline with Tween-80): 94 % of control

COc1ccc([N+]2=Cc3cc(OC)c(OC)cc3CC2)cc1OC
T/C [7]: 89 % of control
T/C [8]: 94 % of control
T/C [13]: 97 % of control
T/C [14]: 91 % of control

O=C(O)/C=C(/C(=O)O)c1cccn1Cc1ccccc1
T/C (endpoint: mean survival time, dose: 25.0 mg/kg/injection, schedule: Q04DX002 (ip), vehicle: saline with Tween-80): 93 % of control
T/C (endpoint: mean survival time, dose: 50.0 mg/kg/injection, schedule: Q04DX002 (ip), vehicle: saline with Tween-80): 101 % of control
T/C [15]: 86 % of control and 87 % of control

Cc1ccc(C(C)(c2ccccc2)C(C)(CC=O)CC(=O)O)cc1 (centres undefined)
T/C [4]: 95 % of control
T/C [5]: 94 % of control
T/C [6]: 97 % of control
